The values that follow come from ChEMBL document CHEMBL4000198, “Triterpene saponins and megastigmane glucosides from Camellia bugiamapensis” (Bioorg Med Chem Lett, 2017).

Molecules are shown by their SMILES.

Broadly, the IC50 is the point on the concentration scale where inhibition reaches its midpoint.

Series [1] has as its system RAW264.7. Nature of the series: Inhibition of LPS-induced NO production in mouse RAW264.7 cells pretreated for 30 mins followed by LPS challenge measured after 24 hrs by Griess assay. Type of series: functional, cell-based.
The subject of series [2] is RAW264.7. The series can be described thus: Cytotoxicity against mouse RAW264.7 cells by MTT assay. Format: cell-based. For orientation: Tetrazolium dyes change colour on reduction, which living cells bring about.
Series [3] concerns RAW264.7. The series can be described thus: Inhibition of LPS-induced NO production in mouse RAW264.7 cells pretreated for 30 mins followed by LPS challenge measured after 12 hrs by Griess assay. Type of series: functional, cell-based. A general note: The Griess reaction detects nitrite, a stable product of nitric oxide.

Take `COC(=O)[C@H]1O[C@@H](O[C@H]2CC[C@]3(C)[C@H]4CC=C5[C@@H]6CC(C)(C)CC[C@]6(CO)[C@H](O)C[C@@]5(C)[C@]4(C)CC[C@H]3C2(C)C)[C@H](O[C@@H]2O[C@@H](C)[C@H](O)[C@@H](O)[C@H]2O)[C@@H](O)[C@@H]1O`: the IC50 with RAW264.7 [1] amounted to 49.4 µM. Moreover, the Activity result with RAW264.7 [2] is given as “Non-Toxic”.

Take `COc1cc(O)cc(O)c1C(=O)/C=C/c1ccccc1` [CARDAMOMIN]: the IC50 in the series with RAW264.7 [3] amounted to 2200 nM.
